Assay results taken from US10392368B2, “Pyrazolo and triazolo bicyclic compounds as JAK kinase inhibitors” (THERAVANCE BIOPHARMA R&D IP, LLC, priority 2017, dated 2019).

These compounds were tested against T1, JAK3 (Homo sapiens, UniProt P52333) (assay: Co-crystal structures bound to human JAK3). Conditions: ATP binding site of human JAK3.
T1 sequence (P52333 1-1124): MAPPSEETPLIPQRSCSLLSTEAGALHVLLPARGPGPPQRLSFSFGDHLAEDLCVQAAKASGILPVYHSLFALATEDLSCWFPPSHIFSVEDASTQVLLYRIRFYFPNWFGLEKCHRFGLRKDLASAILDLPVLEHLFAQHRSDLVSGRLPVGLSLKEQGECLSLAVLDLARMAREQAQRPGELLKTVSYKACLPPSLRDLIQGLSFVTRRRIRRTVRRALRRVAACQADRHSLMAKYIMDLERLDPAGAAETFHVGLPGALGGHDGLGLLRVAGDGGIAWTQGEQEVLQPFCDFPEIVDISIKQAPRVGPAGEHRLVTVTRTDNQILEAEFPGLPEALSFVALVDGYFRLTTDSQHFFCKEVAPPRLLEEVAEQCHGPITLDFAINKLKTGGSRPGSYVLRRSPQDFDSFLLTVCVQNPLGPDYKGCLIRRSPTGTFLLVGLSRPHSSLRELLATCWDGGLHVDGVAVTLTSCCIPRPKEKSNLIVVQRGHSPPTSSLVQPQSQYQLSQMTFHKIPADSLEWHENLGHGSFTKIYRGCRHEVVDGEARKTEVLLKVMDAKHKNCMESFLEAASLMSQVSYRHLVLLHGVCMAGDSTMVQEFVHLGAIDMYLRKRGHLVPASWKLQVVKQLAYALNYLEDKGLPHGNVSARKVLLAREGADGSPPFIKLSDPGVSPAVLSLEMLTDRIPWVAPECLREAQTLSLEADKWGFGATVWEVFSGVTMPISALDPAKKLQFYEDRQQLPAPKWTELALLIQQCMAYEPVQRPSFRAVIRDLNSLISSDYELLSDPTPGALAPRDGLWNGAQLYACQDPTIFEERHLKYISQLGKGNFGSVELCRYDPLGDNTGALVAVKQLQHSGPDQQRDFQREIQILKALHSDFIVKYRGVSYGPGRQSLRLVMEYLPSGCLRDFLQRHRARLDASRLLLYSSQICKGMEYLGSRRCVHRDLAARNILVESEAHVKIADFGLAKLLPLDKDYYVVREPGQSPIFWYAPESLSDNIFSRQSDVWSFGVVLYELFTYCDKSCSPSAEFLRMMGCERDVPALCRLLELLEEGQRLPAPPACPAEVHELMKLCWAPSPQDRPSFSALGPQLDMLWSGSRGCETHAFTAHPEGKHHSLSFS
Excerpt: Co-crystal structures were obtained for compounds 1, 3 and 4 each bound to human JAK3. The resolutions for the complex structures were at 2.73 Å, 2.80 Å, and 2.64 Å respectively for compound 1, compound 3 and compound 4. […] Based on a distance of less than 3.5 Å of the donor and acceptor atoms four specific hydrogen bonds were identified for each of the ligands, namely to the main chain atoms of Glu903, Leu905 and Phe968 as well as the side chain atoms of Glu871. An additional hydrogen bond was identified for compound 1 to the side chain atoms of Asp 912. […] The S—H moiety of the cysteine residue performs an addition reaction to the Michael system. The observed results of the covalent binding interaction in the crystal structures confirms the irreversible binding nature for each of these ligands to JAK3.
With `CN(C)C/C=C/C(=O)N1CC(COc2cc(-c3ccc(O)cc3)cc3[nH]ncc23)C1` [Compound 1, (E)-4-(dimethylamino)-1-(3-(((6-(4-hydroxyphenyl)-1H-indazol-4-yl)oxy)methyl)azetidin-1-yl)but-2-en-1-one] the “binding mode in co-crystal structure” value was “covalently bound to Cys909 of JAK3”.
`CN(C)C/C=C/C(=O)N1CC(C(C)(C)Oc2cc(-c3ccc(O)c(Cl)c3)cc3[nH]ncc23)C1` [Compound 3, (E)-1-(3-(2-((6-(3-chloro-4-hydroxyphenyl)-1H-indazol-4-yl)oxy)propan-2-yl)azetidin-1-yl)-4-(dimethylamino)but-2-en-1-one] was tested, and the “binding mode in co-crystal structure” value was “covalently bound to Cys909 of JAK3”.
With `C=CC(=O)N1CC(COc2nc(-c3ccc(O)cc3)nc3[nH]ncc23)C1` [Compound 4, 1-(3-(((6-(4-hydroxyphenyl)-1H-pyrazolo[3,4-d]pyrimidin-4-yl)oxy)methyl)azetidin-1-yl)prop-2-en-1-one] the “binding mode in co-crystal structure” value was “covalently bound to Cys909 of JAK3”.

Each compound was assayed on IL-2 stimulated pSTAT5 in CD4+ T cells (assay: Inhibition of IL-2 stimulated pSTAT5 in CD4+ T cells isolated from murine splenocytes). Conditions: Mus musculus, AlphaLisa, read-out: pIC50, inhibition of IL-2 stimulated pSTAT5 (converted).
Format: cell-based
Description: The potency of test compounds for inhibition of interleukin-2 (IL-2) stimulated STAT5 phosphorylation was measured in the CD4+ T cells isolated from murine splenocytes using AlphaLisa. Because IL-2 signals through JAK3, this assay provides a measure of JAK3 cellular potency in mouse.
Phosphorylated STAT5 was measured via the AlphaLISA SureFire Ultra pSTAT5 (Tyr694/699) kit (PerkinElmer).
CD4+ T cells were isolated from murine splenocytes via negative selection on a magnetic column (Miltnyi Biotec) and re-suspended in assay media (phenol red-free DMEM (Life Technologies) supplemented with 10% FBS (ATCC)). Cells were seeded at 50,000 cells/well in assay media (2 μL/well). Compounds were serially diluted in DMSO and diluted to 2× final concentration in assay media. Compound was added (4 μl/well) and the cells incubated at 37° C., 5% CO2 for 1 hour, followed by the addition of IL-2 (R&D Systems; final concentration 7 ng/ml) in pre-warmed assay media (2 μL) for 30 minutes. After cytokine stimulation, cells were lysed with 2 μl of 5× AlphaLisa Lysis Buffer (PerkinElmer). The lysate was shaken at 900 rpm for 10 minutes at room temperature (RT). Phosphorylated STAT5 was measured via the pSTAT5 AlphaLisa kit (PerkinElmer). Freshly prepared acceptor bead mixture was dispensed onto lysate (5 ul) under green filtered <100 lux light. Plates were shaken at 900 rpm for 2 mins, briefly spun down, and incubated for 2 hrs at RT in the dark. Donor beads were dispensed (5 μl) under green filtered <100 lux light. Plates were shaken at 900 rpm for 2 mins, briefly spun down, and incubated overnight at RT in the dark. Luminescence was measured with excitation at 689 nm and emission at 570 nm using an EnVision plate reader (PerkinElmer) under green filtered <100 lux light.
To determine the inhibitory potency of test compounds in response to IL-2, the average emission intensity of beads bound to pSTAT5 was measured in primary CD4+ T cells isolated from murine splenocytes. IC50 values were determined from analysis of the inhibition curves of signal intensity vs compound concentration. Data are expressed as pIC50 (negative decadic logarithm IC50) values (mean±standard deviation).
`C=CC(=O)N1CC(C(C)(C)Oc2cc(-c3ccc(O)cc3)nc3[nH]ncc23)C1` [Compound 20, 1-(3-(2-((6-(4-hydroxyphenyl)-1H-pyrazolo[3,4-b]pyridin-4-yl)oxy)propan-2-yl)azetidin-1-yl)prop-2-en-1-one] showed an IC50 of less than 1 µM.
Work on `C=CC(=O)N1CC(C)(COc2nc(-c3ccc(O)c(F)c3)nc3[nH]ncc23)C1` [Compound 21, 1-(3-(((6-(3-fluoro-4-hydroxyphenyl)-1H-pyrazolo[3,4-d]pyrimidin-4-yl)oxy)methyl)-3-methylazetidin-1-yl)prop-2-en-1-one] yielded an IC50 of less than 1 µM.
`C=CC(=O)N1CC(CC)(COc2cc(-c3ccc(O)cc3)nc3[nH]ncc23)C1` [Compound 22, 1-(3-ethyl-3-(((6-(4-hydroxyphenyl)-1H-pyrazolo[3,4-b]pyridin-4-yl)oxy)methyl)azetidin-1-yl)prop-2-en-1-one] was tested, and the IC50 was less than 1 µM.
